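Results reflect a 48-hour exposure of cells in 96-well plates to compound at five concentrations. Abbreviation: GI50, concentration required for 50% inhibition of growth.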 Active and inactive are the calls of the source. Cut-off read from the data, not from the text of the source: active = GI50 up to about 1.1 µM and inactive = higher. A value given as a limit tells only on which side of the number the result lay.

The values below come from ChEMBL document CHEMBL1201862, “PubChem BioAssay data set” (2004).

What all share (assay): NCI tumour cell line growth inhibition, 48 h
Experiment [1] concerns HCC 2998.
Experiment [2] concerns MOLT-4.
Experiment [3] deals with MCF7.
Experiment [4] relates to HOP-92.
The test system of experiment [5] is OVCAR-3.
Experiment [6] relates to SW-620.
Experiment [7] deals with SK-MEL-28.
Experiment [8] relates to UO-31.
The test system of experiment [9] is SF-539.
Experiment [10] has as its system Malme-3M.
Experiment [11] concerns CCRF-CEM.
The test system of experiment [12] is KM12.
The subject of experiment [13] is NCI-H23.
Experiment [14] relates to NCI-H460.
Experiment [15] deals with ACHN.
The test system of experiment [16] is SR.
Experiment [17] has as its system MDA-MB-435.
In experiment [18] the test system is LOX IMVI.
Experiment [19] has as its system OVCAR-4.
The test system of experiment [20] is A498.

On to `c1ccc(CCCCNCc2cc(CNCCCCc3ccccc3)cc(CNCCCCc3ccccc3)c2)cc1`, for which the GI50 in experiment [1] is 0.149 µM (active); in experiment [2] it was 0.251 µM (active); in [3] it was 0.178 µM (active); in experiment [4], 1.45 µM (inactive); in experiment [5], 1.47 µM (inactive); in experiment [6], 0.301 µM (active). The GI50 in experiment [7] was 0.948 µM (active); in [8] it was 0.261 µM (active); in experiment [9], 0.8 µM (active); in experiment [10], 1.76 µM (inactive); in [11], 0.211 µM (active); in experiment [12] it was 0.544 µM (active). Moreover, the GI50 is 1.28 µM (inactive) in experiment [13]; 0.364 µM (active) in experiment [14]; 1.63 µM (inactive) in experiment [15]; 0.216 µM (active) in experiment [16]; 1.21 µM (inactive) in experiment [17]; 0.308 µM (active) in [18]. Further, the GI50 in experiment [19] was 1.85 µM (inactive).
Turning to `[O-][n+]1c2ccccc2[n+]([O-])c2cc(Br)ccc21`, the GI50 in experiment [1] is 16.5 µM (inactive); in experiment [2], 0.144 µM (active); in [3], 11.3 µM (inactive); in [5] it was 2.21 µM (inactive); in [6] it was 20.6 µM (inactive); in experiment [7], 54.1 µM (inactive). In addition, the GI50 is 9.48 µM (inactive) in experiment [8]; 13.9 µM (inactive) in [9]; 23.2 µM (inactive) in [10]; 0.0507 µM (active) in [11]; 12.6 µM (inactive) in [12]; 21.5 µM (inactive) in experiment [13]. For the same compound, the GI50 was 10.4 µM (inactive) in experiment [14]; 4.81 µM (inactive) in experiment [15]; 2.02 µM (inactive) in [16]; 18.2 µM (inactive) in [17]; 17.9 µM (inactive) in [20]; 2.99 µM (inactive) in [18]. Further, the GI50 in experiment [19] is 18.9 µM (inactive).
As for `C/C=C(\C)CC/C=C/CO[Si](C)(C)C(C)(C)C`, the GI50 in [1] is > 100 µM (inactive); in experiment [2], 39 µM (inactive); in experiment [3], 40.1 µM (inactive); in [5], 54.7 µM (inactive); in experiment [6], > 100 µM (inactive); in [7], > 100 µM (inactive). Further, the GI50 in [8] is > 100 µM (inactive); in experiment [9], > 100 µM (inactive); in [10] it was 51.1 µM (inactive); in [11], 24.7 µM (inactive); in [12], > 100 µM (inactive); in [13], > 100 µM (inactive). Besides, the GI50 in experiment [14] is > 100 µM (inactive); in [15] it was > 100 µM (inactive); in experiment [16], 28.9 µM (inactive); in [17] it was > 100 µM (inactive); in experiment [20], > 100 µM (inactive); in experiment [18] it was 22.3 µM (inactive). For the same compound, the GI50 in experiment [19] was > 100 µM (inactive).
For the compound `CC1(C)OC(=O)C(C)(C)OC1=O`, the GI50 in [2], in [3], in experiment [4], in experiment [5], in experiment [6] and in experiment [7] was > 100 µM (inactive) throughout. For the same compound, the GI50 in experiment [8], in [9], in experiment [10], in experiment [11], in experiment [12] and in experiment [13] was > 100 µM (inactive) throughout. Also, the GI50 in [14], in experiment [15], in experiment [16], in experiment [17], in experiment [20] and in experiment [18] was > 100 µM (inactive) each time. The GI50 in experiment [19] is > 100 µM (inactive).
Take `COc1cc(S(=O)(=O)N/N=C/c2cc(Br)c(O)c(OC)c2)c(OC)cc1NC(C)=O`: the GI50 in experiment [2] is 42.9 µM (inactive); in experiment [3], 57.4 µM (inactive); in experiment [4], 34.1 µM (inactive); in experiment [5] it was 92 µM (inactive); in [6] it was 35.1 µM (inactive); in [7], > 100 µM (inactive). Further, the GI50 in experiment [8] is > 100 µM (inactive); in experiment [9], 20.2 µM (inactive); in experiment [11], 21.7 µM (inactive); in [12] it was > 100 µM (inactive); in [13], > 100 µM (inactive); in experiment [15], 78.3 µM (inactive). The GI50 in experiment [16] is 80.2 µM (inactive); in experiment [17], 80.5 µM (inactive); in experiment [20] it was > 100 µM (inactive); in experiment [18] it was 38.6 µM (inactive); in experiment [19] it was 69.3 µM (inactive).
Turning to `C[C@H]1O[C@@H](C(C)(C)C)OC(=O)[C@@H]1C(OC(=O)c1ccccc1)c1cccc2ccccc12` (some centres not stated), the GI50 in experiment [1], in experiment [2], in [3], in [5], in [6] and in [7] was > 100 µM (inactive) each time. Moreover, the GI50 in [8], in experiment [9], in experiment [10], in experiment [11], in [12] and in [13] was > 100 µM (inactive) in each case. The GI50 was > 100 µM (inactive) in experiment [14]; > 100 µM (inactive) in experiment [15]; 48.4 µM (inactive) in [16]; > 100 µM (inactive) in [17]; > 100 µM (inactive) in experiment [18]; > 100 µM (inactive) in experiment [19].
As to `Cc1cnc2sn(-c3ccc(Oc4ccccc4)cc3)c(=O)c2c1`, the GI50 was 6.47 µM (inactive) in [1]; 8.67 µM (inactive) in experiment [2]; 22.4 µM (inactive) in experiment [3]; 6.11 µM (inactive) in [5]; 21.2 µM (inactive) in experiment [6]; 10.3 µM (inactive) in [7]. The GI50 in experiment [8] was 19.5 µM (inactive); in [9], 14 µM (inactive); in experiment [10], 1.7 µM (inactive); in experiment [11], 5.11 µM (inactive); in [12], 13.4 µM (inactive); in experiment [13], 25.4 µM (inactive). Also, the GI50 in experiment [14] was 7.41 µM (inactive); in experiment [15], 13.7 µM (inactive); in experiment [16], 7.06 µM (inactive); in experiment [17], 13.3 µM (inactive); in experiment [18], 6.1 µM (inactive); in experiment [19], 17.9 µM (inactive).
As to `COc1cc2c(c(O)c1OC)C(=O)C(Cc1ccc(O)cc1)CO2` (configuration not stated), the GI50 is 35.2 µM (inactive) in [2]; 2.33 µM (inactive) in experiment [3]; 30.3 µM (inactive) in experiment [4]; 9.4 µM (inactive) in [5]; 30.1 µM (inactive) in experiment [6]; 46.8 µM (inactive) in experiment [7]. For the same compound, the GI50 is 40.6 µM (inactive) in [8]; 16.1 µM (inactive) in [9]; 19.9 µM (inactive) in experiment [10]; 24.5 µM (inactive) in experiment [11]; 23.4 µM (inactive) in experiment [12]; 29 µM (inactive) in [13]. Moreover, the GI50 was 32.7 µM (inactive) in experiment [14]; 42.5 µM (inactive) in experiment [15]; 4.67 µM (inactive) in [16]; 2.36 µM (inactive) in experiment [17]; 34.1 µM (inactive) in experiment [18]; 44.7 µM (inactive) in [19].
For the compound `CN(Cc1cc(C(C)(C)C)cc(Br)c1O)Cc1cc(C(C)(C)C)cc(Br)c1O`, the GI50 in [2] is 3.21 µM (inactive); in experiment [3] it was 1.56 µM (inactive); in [4] it was 4.23 µM (inactive); in experiment [5], 2.15 µM (inactive); in [6], 3.48 µM (inactive); in experiment [7], 5.14 µM (inactive). Moreover, the GI50 is 3.61 µM (inactive) in experiment [8]; 2.74 µM (inactive) in experiment [9]; 4.58 µM (inactive) in [10]; 2.7 µM (inactive) in experiment [11]; 2.52 µM (inactive) in [12]; 3.15 µM (inactive) in [13]. For the same compound, the GI50 is 1.87 µM (inactive) in experiment [14]; 2.94 µM (inactive) in experiment [15]; 2.86 µM (inactive) in experiment [16]; 4.43 µM (inactive) in experiment [17]; 2.75 µM (inactive) in experiment [20]; 3.77 µM (inactive) in experiment [18]. In addition, in experiment [19], the GI50 is 5.08 µM (inactive).
Turning to `O=[N+]([O-])C(=C1NCCN1)C(Cl)=C(Cl)Cl`, the GI50 in experiment [1] was > 100 µM (inactive); in [2] it was 49.5 µM (inactive); in experiment [3], > 100 µM (inactive); in [5] it was > 100 µM (inactive); in experiment [7] it was > 100 µM (inactive); in experiment [8], > 100 µM (inactive). The GI50 in experiment [9] is > 100 µM (inactive); in experiment [10], > 100 µM (inactive); in experiment [11], 52.6 µM (inactive); in experiment [12], > 100 µM (inactive); in experiment [13], > 100 µM (inactive); in [14], > 100 µM (inactive). Moreover, the GI50 in experiment [15], in experiment [16], in experiment [17], in experiment [20], in experiment [18] and in experiment [19] was > 100 µM (inactive) each time.
Turning to `COc1cc(-c2cc(=O)c3cc4c(cc3[nH]2)OCO4)cc(OC)c1O`, the GI50 in experiment [1], in experiment [2], in [3], in experiment [4], in experiment [5] and in [6] was > 10 µM (inactive) throughout. Also, the GI50 in experiment [7], in experiment [8], in experiment [9], in experiment [11], in experiment [12] and in [13] was > 10 µM (inactive) each time. In addition, the GI50 in [14], in experiment [15], in experiment [16], in experiment [17], in experiment [18] and in experiment [19] was > 10 µM (inactive) throughout.
